Several values for one entry are separate records, joined by “and”; a condition that tells them apart may be missing. Equal entries are not always repeated.
What was measured:
[1] = test system: human hepatoma Hep3B cells; assay: In vivo efficacy on subcutaneous xenograft of human hepatoma Hep3B cells in NU/NU nude mice; conditions: compound 1.5 mg/kg, Sorafenib 30 mg/kg, combination 1.5 + 30 mg/kg; for Tumor volume (mm^3) Day 0: Day 0, at grouping (baseline)
Procedure: (§1) This example aimed to evaluate the in vivo efficacy and tolerability of the pharmaceutical combination of the present invention in a NU/NU nude mouse model with human hepatoma Hep3B cell subcutaneous xenografts.
(§2) Human hepatoma Hep3B cells were cultured as a monolayer in vitro, and the culture conditions were EMEM culture medium supplemented with 10% Fetal Bovine Serum, and incubation in an incubator at 37° C. and 5% CO2. The cells were subcultured by treatment with routine trypsin-EDTA digestion twice a week.
0.2 mL of a cell suspension (PBS:Matrigel=1:1) containing 1×10^6 Hep3B was inoculated subcutaneously into the right flank of each mouse. After the inoculated tumor reached an average size in the range of 100-200 mm^3, the grouping of animals was performed.
(§3) 5 g of sodium carboxymethyl cellulose was weighed and placed in a 1000 mL wide-mouth bottle, 800 mL of ultrapure water was added, and the mixture was stirred to effect a solution, the volume of which was then filled up to 1000 mL, thereby obtaining the vehicle.
(§4) An appropriate amount of the 4′-thionucleoside phosphamide derivative compound in the present invention was weighed, a certain amount of the vehicle was added, and a uniform suspension was obtained after mixing.
(§5) An appropriate amount of Sorafenib was weighed, and dissolved by adding polyoxyethylene castor oil. Ethanol was added and evenly mixed, followed by addition of physiological saline, thereby obtaining a uniform suspension.
(§6) Mice bearing a tumor having a volume of 100-200 mm^3 were selected, and randomized into groups (8 mice per group). The dosing volume was 10 mL/kg (in the group treated with the drug combination, the two drugs were administered individually at an interval of 4 hours), and the administration was performed by oral gavage (p.o.) every day for 20 days. The tumor volume, body weight of the animals and tumor weight were measured.
(1) The Anti-Tumor Effect was Evaluated by Measuring the Tumor Volume.
The equation for calculating the tumor volume is as follows: V=0.5a×b^2, wherein a and b respectively represent the major and minor diameters of a tumor.
RTV=Vt/V0; wherein V0 is the average tumor volume measured at the time of grouping for administration (i.e., Day 0); and Vt is the average tumor volume measured on Day t.
The anti-tumor efficacy was evaluated by tumor growth inhibition TGIvolume (%) and T/Cvolume (%). T/Cvolume (%)=TRTV/CRTV×100%; TGIvolume (%)=100%−T/Cvolume (%); wherein TRTV and CRTV are respectively RTVs of the treatment group and vehicle group at the end of the test.
TGItumor weight (%) and T/Ctumor weight (%) were calculated based on tumor weight, and were used to evaluate the tumor inhibitory effect. The equation for calculation is as follows: T/Ctumor weight(%)=WTt/WCt×100%; TGItumor weight(%)=100%−T/Ctumor weight(%);
WTt is the average tumor weight in the treatment group at the end of the test; and WCt is the average tumor weight in the vehicle group at the end of the test.
The synergism was evaluated by Jin's equation q=EA+B/(EA+EB−EA×EB), wherein EA+B represents the efficacy achieved by the combination, and EA or EB represents the efficacy achieved by individual administration. In the present invention, the efficacy indicated in the equation refers to TGI %. When q<0.85, the combination administration is considered to achieve an antagonistic effect; when q=0.85-1.15, the combination administration is considered to achieve an additive effect; and when q>1.15, the combination administration is considered to achieve a synergistic effect.

[2] = test system: human hepatoma Hep3B-luc cells; assay: In vivo efficacy on orthotopic liver xenograft of human hepatoma Hep3B-luc cells in BALB/c nude mice; conditions: compound 1.5 mg/kg, Sorafenib 30 mg/kg, combination 1.5 + 30 mg/kg; for The average bioluminescence value of tumor (photons/sec) Day 0: Day 0, at grouping (baseline); for T/Cfluorescence (%) / T/Ctumor weight (%) / TGIfluorescence (%) / TGItumor weight (%) / The average bioluminescence value of tumor (photons/sec) Day 28 / Tumor weight: Day 28, p.o. every day
Procedure: This example aimed to evaluate the in vivo efficacy of the pharmaceutical combination of the present invention in a BALB/c nude mouse model with human hepatoma Hep3B-luc cell orthotopic xenografts.
as §2, with “Hep3B-luc” for “Hep3B”, “week. When cell saturation was 80-90%, the number met the requirement, and the cells were harvested and counted.” for “week.”
20 μl of the cell suspension (PBS:Matrigel=1:1) containing about 3×10^6 Hep3B-Luc cells was injected into the left lobe of the liver of BALB/c-nude mice.
as §3, §4, §5
After inoculation, the tumor growth was assessed by real-time IVIS fluorescence imaging, and mice bearing a tumor with a bioluminescence value of about 1E+8 photons/sec were selected, and randomized into groups (10 mice per group). The dosing volume was 10 mL/kg (in the group treated with the drug combination, the two drugs were administered individually at an interval of 4 hours), and the administration was performed by oral gavage (p.o.) every day for 4 weeks. The tumor volume and tumor weight were measured and recorded by IVIS bioluminescence.
The anti-tumor effect was evaluated by measuring the bioluminescence value, which reflects the tumor volume. The relative bioluminescence value (RB) was calculated by the measured average bioluminescence value, RB=Bt/B0, wherein B0 is the average bioluminescence value measured at the time of grouping for administration (i.e., Day 0); Bt is the average bioluminescence value measured on Day t. The anti-tumor efficacy was evaluated by tumor growth inhibition TGIfluorescence (%) and T/Cfluorescence (%). The equations for calculation are as follows: T/Cfluorescence(%)=TRB/CRB×100%; TGIfluorescence(%)=100%−T/Cfluorescence(%)
wherein TRB and CRB are respectively the relative fluorescence values (RB) of the treatment group and vehicle group.
The anti-tumor efficacy was evaluated by TGIfluorescence% or T/Cfluorescence%.
The anti-tumor effect was evaluated by tumor weight according to a method same as that described in Example 1.
(3) The Criteria for Determining Synergism were the Same as in Example 1.

[3] = test system: mouse colon cancer MC38 cells expressing humanized PD-L1 (hPD-L1-MC38); assay: In vivo efficacy on subcutaneous xenograft of mouse colon cancer hPD-L1-MC38 cells in C57BL/6J mice; conditions: Day 28; compound 1.5 mg/kg p.o. every day, Tecentriq 10 mg/kg i.p. once every 2 days, combination 1.5 + 10 mg/kg
Procedure: This example aimed to evaluate the in vivo efficacy of the pharmaceutical combination of the present invention in a C57BL/6J mouse model with subcutaneous xenograft of mouse colon cancer hPD-L1-MC38 cells expressing humanized PD-L1.
hPD-L1-MC38 cells were cultured as a monolayer in vitro, and the culture conditions were 1640 culture medium supplemented with 10% Fetal Bovine Serum, and incubation in an incubator at 37° C. and 5% CO2. The cells were subcultured by treatment with routine trypsin-EDTA digestion three times a week.
0.1 mL of a PBS resuspension containing 2×10^5 hPD-L1-MC38 cells was inoculated subcutaneously at the right scapula of each mouse, and the grouping of animals was performed on the day of inoculation.
as §3, §4
An appropriate amount of the hPD-L1 inhibitor (Atezolizumab, trade name: Tecentriq® purchased from Roche Corporation, WHO Pharmaceutical Information (International Nonproprietary Name for Pharmaceutical Substances), Recommended INN: List 74, Vol. 29, No. 3, 2015 (see page 387)) was taken, physiological saline was added to obtain a solution of Tecentriq® at a concentration of 1 mg/mL.
C57BL/6J mice were inoculated with hPD-L1-MC38 cells, randomized into groups (8 mice per group), and treated by administration on the same day of the inoculation. The dosing volume was 10 mL/kg (in the group treated with the drug combination, the two drugs were administered individually at an interval of 4 hours). The 4′-thionucleoside phosphamide derivative compound in the present invention was administered by oral gavage (p.o.) every day for 4 weeks, and Tecentriq was administered intraperitoneally (i.p.) once every 2 days for 4 weeks. The tumor weight was measured.
The anti-tumor effect was evaluated by the measured tumor weight, and the method of measuring tumor weight and its evaluation were the same as those described in Example 1.

[4] = Tolerability by body weight change of Hep3B cell tumor-bearing NU/NU nude mice; format: in vivo, mouse
Procedure: as §1, §6
(2) The Animal's Tolerance to a Drug was Evaluated by Animal Body Weight Change.
The method for calculating the animal body weight change (%) is as follows: (Wt−W0)/W0×100%; W0: the animal's body weight at the time of grouping for administration (i.e., Day 0); Wt: the animal's body weight on day t of the test.
Body weight change in the animals tested serve as a reference indicator for determining drug tolerance.

## CC(C)OC(=O)C(C)NP(=O)(OCC1SC(n2ccc(N)nc2=O)C(F)C1O)Oc1ccccc1 (centres unmarked)
[1]
  Tumor volume (mm^3) Day 0: 137.67 ± 7.75 mm^3
[1]; Day 20, p.o. every day
  T/Ctumor weight (%): 61.02%
  T/Cvolume (%): 65.25%
  TGItumor weight (%): 38.98%
  TGIvolume (%): 34.75%
  Tumor weight: 1.19 g and 1.19 ± 0.25 g
[2]
  The average bioluminescence value of tumor (photons/sec) Day 0: 1.09E+8 photons/sec
  T/Cfluorescence (%): 103.43%
  T/Ctumor weight (%): 77.93%
  TGIfluorescence (%): −3.43%
  TGItumor weight (%): 22.07%
  The average bioluminescence value of tumor (photons/sec) Day 28: 2.41E+10 photons/sec
  Tumor weight: 3.46 g and 3.46 ± 1.17 g
[3]
  T/Ctumor weight (%): 95.16%
  TGItumor weight (%): 4.84%
  Tumor weight: 3.54 g and 3.54 ± 0.41 g

## Atezolizumab [Tecentriq]
[3]
  T/Ctumor weight (%): 73.12%
  TGItumor weight (%): 26.88%
  Tumor weight: 2.72 g and 2.72 ± 0.44 g

## CNC(=O)c1cc(Oc2ccc(NC(=O)Nc3ccc(Cl)c(C(F)(F)F)c3)cc2)ccn1 [Sorafenib]
[1]
  Tumor volume (mm^3) Day 0: 137.77 ± 7.92 mm^3
[1]; Day 20, p.o. every day
  T/Ctumor weight (%): 38.97%
  T/Cvolume (%): 42.86%
  TGItumor weight (%): 61.03%
  TGIvolume (%): 57.14%
  Tumor volume (mm^3) Day 20: 912.68 mm^3 and 912.68 ± 173.12 mm^3
  Tumor weight: 0.76 g and 0.76 ± 0.17 g
[4]; Day 20, Sorafenib 30 mg/kg p.o. every day, printed as loss
  weight loss: 8.31%
[4]; Day 20, p.o. every day, compound 1.5 mg/kg, Sorafenib 30 mg/kg, combination 1.5 + 30 mg/kg, error range ±0.2%
  Body weight change (%): −8.31%
[2]
  The average bioluminescence value of tumor (photons/sec) Day 0: 1.09E+8 photons/sec
  T/Cfluorescence (%): 64.81%
  T/Ctumor weight (%): 31.53%
  TGIfluorescence (%): 35.19%
  TGItumor weight (%): 68.47%
  The average bioluminescence value of tumor (photons/sec) Day 28: 1.51E+10 photons/sec
  Tumor weight: 1.40 g and 1.40 ± 0.82 g

From US11266674B2, “Pharmaceutical composition for tumor treatment or prevention, method, and use thereof” (SICHUAN KELUN-BIOTECH BIOPHARMACEUTICAL CO., LTD., priority 2017, dated 2022)
